Measurements taken from the supplement of paper PMC10307832.

Experiments:
Assay in all cases: relative viability (nuclei count vs DMSO), 5 days (fraction); higher = more cells survive
NCI-H1563 = system: NCI-H1563
Outline: (§1)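 Medians of duplicate plates are given as relative viability. That measure is the nuclei count in treated wells divided by the count in vehicle wells. Counts were taken on 4× images of lung cancer cell lines in 1536-well plates, 5 days after pin-tool dosing the day after seeding with one drug alone or a fixed anchor-drug dose plus five library-drug doses (not always all listed) in √10 steps.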

PC-3 [JPC-3] = system: PC-3 [JPC-3]
Outline: as §1

EKVX = system: EKVX
Outline: as §1

NCI-H1975 = system: NCI-H1975
Outline: as §1

LCLC-97TM1 = system: LCLC-97TM1
Outline: as §1

NCI-H661 = system: NCI-H661
Outline: as §1

PC-14 = system: PC-14
Outline: as §1

RERF-LC-KJ = system: RERF-LC-KJ
Outline: as §1

NCI-H1355 = system: NCI-H1355
Outline: as §1

NCI-H2342 = system: NCI-H2342
Outline: as §1

NCI-H2228 = system: NCI-H2228
Outline: as §1

NCI-H1650 = system: NCI-H1650
Outline: as §1

H3255 = system: H3255
Outline: as §1

HCC-15 = system: HCC-15
Outline: as §1

LK-2 = system: LK-2
Outline: as §1

NCI-H322M = system: NCI-H322M
Outline: as §1

NCI-H520 = system: NCI-H520
Outline: as §1

NCI-H1755 = system: NCI-H1755
Outline: as §1

CAL-12T = system: CAL-12T
Outline: as §1

HCC-827 = system: HCC-827
Outline: as §1

NCI-H2405 = system: NCI-H2405
Outline: as §1

NCI-H1734 = system: NCI-H1734
Outline: as §1

O=c1cc(N2CCOCC2)oc2c(-c3cccc4c3sc3ccccc34)cccc12 + COc1cccc2cc(-c3nc([C@H]4CC[C@H](C(=O)O)CC4)n4ncnc(N)c34)[nH]c12 [OSI-027] (partner 0.5 µM)
relative viability (NCI-H1563; first compound 0.01 µM): 0.695 | relative viability (NCI-H1563; first compound 0.03162 µM): 0.741 | relative viability (NCI-H1563; first compound 0.1 µM): 0.773 | relative viability (NCI-H1563; first compound 0.3162 µM): 0.794 | relative viability (NCI-H1563; first compound 1 µM): 0.697 | relative viability (PC-3 [JPC-3]; first compound 0.01 µM): 0.762 | relative viability (PC-3 [JPC-3]; first compound 0.03162 µM): 0.768 | relative viability (PC-3 [JPC-3]; first compound 0.1 µM): 0.644 | relative viability (PC-3 [JPC-3]; first compound 0.3162 µM): 0.738 | relative viability (PC-3 [JPC-3]; first compound 1 µM): 0.825 | relative viability (EKVX; first compound 0.01 µM): 0.673 | relative viability (EKVX; first compound 0.03162 µM): 0.715 | relative viability (EKVX; first compound 0.1 µM): 0.659 | relative viability (EKVX; first compound 0.3162 µM): 0.719 | relative viability (EKVX; first compound 1 µM): 0.749 | relative viability (NCI-H1975; first compound 0.01 µM): 0.718 | relative viability (NCI-H1975; first compound 0.03162 µM): 0.73 | relative viability (NCI-H1975; first compound 0.1 µM): 0.792 | relative viability (NCI-H1975; first compound 0.3162 µM): 0.874 | relative viability (NCI-H1975; first compound 1 µM): 0.752 | relative viability (LCLC-97TM1; first compound 0.01 µM): 0.583 | relative viability (LCLC-97TM1; first compound 0.03162 µM): 0.684 | relative viability (LCLC-97TM1; first compound 0.1 µM): 0.491 | relative viability (LCLC-97TM1; first compound 0.3162 µM): 0.612 | relative viability (LCLC-97TM1; first compound 1 µM): 0.555 | relative viability (NCI-H661; first compound 0.01 µM): 0.692 | relative viability (NCI-H661; first compound 0.03162 µM): 0.738 | relative viability (NCI-H661; first compound 0.1 µM): 0.772 | relative viability (NCI-H661; first compound 0.3162 µM): 0.756 | relative viability (NCI-H661; first compound 1 µM): 0.708 | relative viability (PC-14; first compound 0.01 µM): 0.954 | relative viability (PC-14; first compound 0.03162 µM): 0.858 | relative viability (PC-14; first compound 0.1 µM): 0.74 | relative viability (PC-14; first compound 0.3162 µM): 1.04 | relative viability (PC-14; first compound 1 µM): 0.795 | relative viability (RERF-LC-KJ; first compound 0.01 µM): 0.617 | relative viability (RERF-LC-KJ; first compound 0.03162 µM): 0.635 | relative viability (RERF-LC-KJ; first compound 0.1 µM): 0.6 | relative viability (RERF-LC-KJ; first compound 0.3162 µM): 0.615 | relative viability (RERF-LC-KJ; first compound 1 µM): 0.555 | relative viability (NCI-H1355; first compound 0.01 µM): 0.474 | relative viability (NCI-H1355; first compound 0.03162 µM): 0.469 | relative viability (NCI-H1355; first compound 0.1 µM): 0.265 | relative viability (NCI-H1355; first compound 0.3162 µM): 0.452 | relative viability (NCI-H1355; first compound 1 µM): 0.394 | relative viability (NCI-H2342; first compound 0.01 µM): 0.641 | relative viability (NCI-H2342; first compound 0.03162 µM): 0.591 | relative viability (NCI-H2342; first compound 0.1 µM): 0.652 | relative viability (NCI-H2342; first compound 0.3162 µM): 0.715 | relative viability (NCI-H2342; first compound 1 µM): 0.533 | relative viability (NCI-H2228; first compound 0.01 µM): 0.677 | relative viability (NCI-H2228; first compound 0.03162 µM): 0.775 | relative viability (NCI-H2228; first compound 0.1 µM): 0.558 | relative viability (NCI-H2228; first compound 0.3162 µM): 0.605 | relative viability (NCI-H2228; first compound 1 µM): 0.548 | relative viability (NCI-H1650; first compound 0.01 µM): 0.519 | relative viability (NCI-H1650; first compound 0.03162 µM): 0.631 | relative viability (NCI-H1650; first compound 0.1 µM): 0.535 | relative viability (NCI-H1650; first compound 0.3162 µM): 0.769 | relative viability (NCI-H1650; first compound 1 µM): 0.592 | relative viability (H3255; first compound 0.01 µM): 0.659 | relative viability (H3255; first compound 0.03162 µM): 0.503 | relative viability (H3255; first compound 0.1 µM): 0.584 | relative viability (H3255; first compound 0.3162 µM): 0.668 | relative viability (H3255; first compound 1 µM): 0.536 | relative viability (HCC-15; first compound 0.01 µM): 0.674 | relative viability (HCC-15; first compound 0.03162 µM): 0.807 | relative viability (HCC-15; first compound 0.1 µM): 0.774 | relative viability (HCC-15; first compound 0.3162 µM): 0.688 | relative viability (HCC-15; first compound 1 µM): 0.67 | relative viability (LK-2; first compound 0.01 µM): 0.24 | relative viability (LK-2; first compound 0.03162 µM): 0.361 | relative viability (LK-2; first compound 0.1 µM): 0.181 | relative viability (LK-2; first compound 0.3162 µM): 0.219 | relative viability (LK-2; first compound 1 µM): 0.212 | relative viability (NCI-H322M; first compound 0.01 µM): 0.599 | relative viability (NCI-H322M; first compound 0.03162 µM): 0.646 | relative viability (NCI-H322M; first compound 0.1 µM): 0.282 | relative viability (NCI-H322M; first compound 0.3162 µM): 0.579 | relative viability (NCI-H322M; first compound 1 µM): 0.43 | relative viability (NCI-H520; first compound 0.01 µM): 0.284 | relative viability (NCI-H520; first compound 0.03162 µM): 0.299 | relative viability (NCI-H520; first compound 0.1 µM): 0.235 | relative viability (NCI-H520; first compound 0.3162 µM): 0.229 | relative viability (NCI-H520; first compound 1 µM): 0.323 | relative viability (NCI-H1755; first compound 0.01 µM): 0.785 | relative viability (NCI-H1755; first compound 0.03162 µM): 0.691 | relative viability (NCI-H1755; first compound 0.1 µM): 0.783 | relative viability (NCI-H1755; first compound 0.3162 µM): 0.673 | relative viability (NCI-H1755; first compound 1 µM): 0.685 | relative viability (CAL-12T; first compound 0.01 µM): 0.69 | relative viability (CAL-12T; first compound 0.03162 µM): 0.71 | relative viability (CAL-12T; first compound 0.1 µM): 0.599 | relative viability (CAL-12T; first compound 0.3162 µM): 0.728 | relative viability (CAL-12T; first compound 1 µM): 0.707 | relative viability (HCC-827; first compound 0.01 µM): 0.853 | relative viability (HCC-827; first compound 0.03162 µM): 0.813 | relative viability (HCC-827; first compound 0.1 µM): 0.744 | relative viability (HCC-827; first compound 0.3162 µM): 0.772 | relative viability (HCC-827; first compound 1 µM): 0.791 | relative viability (NCI-H2405; first compound 0.01 µM): 0.717 | relative viability (NCI-H2405; first compound 0.03162 µM): 0.615 | relative viability (NCI-H2405; first compound 0.1 µM): 0.564 | relative viability (NCI-H2405; first compound 0.3162 µM): 0.663 | relative viability (NCI-H2405; first compound 1 µM): 0.685 | relative viability (NCI-H1734; first compound 0.01 µM): 0.697 | relative viability (NCI-H1734; first compound 0.03162 µM): 0.599 | relative viability (NCI-H1734; first compound 0.1 µM): 0.579 | relative viability (NCI-H1734; first compound 0.3162 µM): 0.67 | relative viability (NCI-H1734; first compound 1 µM): 0.609
